System: PC-3/Txr tumors
Assay: PC-3/Txr tumor growth inhibition, oral dosing
Details: in vivo

CC(=O)O[C@@]12CO[C@@H]1C[C@H](O)[C@@]1(C)C(=O)[C@H](O)C3=C(C)[C@@H](OC(=O)[C@H](O)[C@@H](NC(=O)OC(C)(C)C)c4ccccc4)C[C@@](O)([C@@H](OC(=O)c4ccccc4)[C@H]21)C3(C)C [docetaxel]
efficacy in PC-3/Txr tumors: lack of efficacy
